From patent US20130296311A1, “INHIBITORS OF HCV NS5A” (PRESIDIO PHARMACEUTICALS, INC., priority 2010, published 2013)
Where two headings read alike, the source gives them in different places.

System: HCV 1b_Huh-Luc/Neo-ET cell line persistently expressing a bicistronic genotype 1b replicon in Huh 7 cells
Assay: HCV replicon assay (luciferase readout, 72 h)
Type: cell-based, HCV genotype 1b
Conditions: Hepatitis C virus
In short: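 EC50 values come from a four-parameter fit of luciferase signal as % of untreated control, repeated across several determinations. The signal is from the HCV 1b_Huh-Luc/Neo-ET replicon line, dosed in triplicate one day post-plating and incubated 72 h before Bright-Glo readout.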

[1] = Huh-7, read-out: Inhibition of HCV genotype 1b

Compound | EC50 [1] [nM] | EC50 (Huh-7, 72 h, read-out: Inhibition of HCV genotype 1b) [nM]
COC(=O)N[C@H](C(=O)N1CCC[C@H]1c1nc(C(F)(F)F)c(C#Cc2ccc3cc(-c4cnc([C@@H]5CCCN5C(=O)[C@@H](NC(=O)OC)[C@@H](C)OC)[nH]4)ccc3c2)[nH]1)C1CCCC1 [Compound 1263] | < 1 | –
COC(=O)N[C@H](C(=O)N1CCC[C@H]1c1nc(C)c(C#Cc2ccc3cc(-c4cnc([C@@H]5CCCN5C(=O)[C@@H](NC(=O)OC)[C@@H](C)OC)[nH]4)ccc3c2)[nH]1)C(C)C [Compound 1264] | < 1 | –
CC[C@H](C)[C@H](NC(=O)OC)C(=O)N1CCC[C@H]1c1nc(C)c(C#Cc2ccc3cc(-c4cnc([C@@H]5CCCN5C(=O)[C@@H](NC(=O)OC)[C@@H](C)OC)[nH]4)ccc3c2)[nH]1 [Compound 1265] | < 1 | –
COC(=O)N[C@H](C(=O)N1CCC[C@H]1c1nc(C)c(C#Cc2ccc3cc(-c4cnc([C@@H]5CCCN5C(=O)[C@@H](NC(=O)OC)[C@@H](C)OC)[nH]4)ccc3c2)[nH]1)C1CCCC1 [Compound 1266] | < 1 | –
COC(=O)N[C@H](C(=O)N1CCC[C@H]1c1ncc(-c2ccc3cc(C#Cc4[nH]c([C@@H]5CCCN5C(=O)[C@@H](NC(=O)OC)C(C)C)nc4C(=O)O)ccc3c2)[nH]1)C(C)C [Compound 1267] | < 1 | –
COC(=O)N[C@H](C(=O)N1CCC[C@H]1c1nc(C#N)c(C#Cc2ccc3cc(-c4cnc([C@@H]5CCCN5C(=O)[C@@H](NC(=O)OC)[C@@H](C)OC)[nH]4)ccc3c2)[nH]1)C(C)C [Compound 1268] | < 1 | –
COC(=O)N[C@H](C(=O)N1CCC[C@H]1c1nc(C#N)c(C#Cc2ccc3cc(-c4cnc([C@@H]5CCCN5C(=O)[C@@H](NC(=O)OC)[C@@H](C)OC)[nH]4)ccc3c2)[nH]1)C1CCCC1 [Compound 1270] | < 1 | –
COC(=O)N[C@H](C(=O)N1CCC[C@H]1c1ncc(-c2ccc(C#Cc3ccc4c(ccc5nc([C@@H]6CCCN6C(=O)[C@@H](NC(=O)OC)[C@@H](C)OC)[nH]c54)c3)cc2)[nH]1)C(C)C [Compound 1271] | < 1 | –
COC(=O)N[C@H](C(=O)N1CCC[C@H]1c1ncc(-c2ccc(C#Cc3ccc4c(ccc5nc([C@@H]6CCCN6C(=O)[C@@H](NC(=O)OC)C6CCOCC6)[nH]c54)c3)cc2)[nH]1)C(C)C [Compound 1272] | < 1 | –
COC(=O)N[C@H](C(=O)N1CCC[C@H]1c1nc2ccc(C#Cc3ccc4c(ccc5nc([C@@H]6CCCN6C(=O)[C@@H](NC(=O)OC)C(C)C)[nH]c54)c3)cc2[nH]1)C(C)C [Compound 1273] | < 1 | –
COC(=O)N[C@H](C(=O)N1CCC[C@H]1c1nc2ccc3cc(C#Cc4ccc5nc([C@@H]6CCCN6C(=O)[C@@H](NC(=O)OC)C6CCOCC6)[nH]c5c4)ccc3c2[nH]1)C(C)C [Compound 1274] | < 1 | –
COC(=O)N[C@H](C(=O)N1CCC[C@H]1c1nc2ccc3cc(C#Cc4ccc5nc([C@@H]6CCCN6C(=O)[C@H](NC(=O)OC)c6ccccc6)[nH]c5c4)ccc3c2[nH]1)C(C)C [Compound 1275] | < 1 | –
COC(=O)N[C@H](C(=O)N1CCC[C@H]1c1nc2ccc3cc(C#Cc4ccc5nc([C@@H]6CCCN6C(=O)[C@H](NC(=O)OC6CCOCC6)c6ccccc6)[nH]c5c4)ccc3c2[nH]1)C(C)C [Compound 1276] | < 1 | –
C=CC[C@H](NC(=O)OC)C(=O)N1CCC[C@H]1c1nc2ccc(C#Cc3ccc4c(ccc5nc([C@@H]6CCCN6C(=O)[C@@H](NC(=O)OC)C(C)C)[nH]c54)c3)cc2[nH]1 [Compound 1277] | < 1 | –
[2H]C([2H])([2H])C([2H])(C([2H])([2H])[2H])[C@@]([2H])(NC(=O)OC)C(=O)N1CCC[C@H]1c1nc2ccc(C#Cc3ccc4c(ccc5nc([C@@H]6CCCN6C(=O)[C@@H](NC(=O)OC)C(C)C)[nH]c54)c3)cc2[nH]1 [Compound 1278] | < 1 | –
COC(=O)N[C@H](C(=O)N1CCC[C@H]1c1nc2c([nH]1)-c1ccc(C#Cc3ccc4nc([C@@H]5CCCN5C(=O)[C@@H](NC(=O)OC)C(C)C)[nH]c4c3)cc1CCC2)C(C)C [Compound 1279] | < 1 | –
COC(=O)N[C@H](C(=O)N1CCC[C@H]1c1nc2c([nH]1)-c1ccc(C#Cc3ccc4nc([C@@H]5CCCN5C(=O)[C@@H](NC(=O)OC)C5CCOCC5)[nH]c4c3)cc1CCC2)C(C)C [Compound 1280] | < 1 | –
COC(=O)N[C@H](C(=O)N1CCC[C@H]1c1nc2c([nH]1)-c1ccc(C#Cc3ccc4nc([C@@H]5CCCN5C(=O)[C@H](NC(=O)OC)c5ccccc5)[nH]c4c3)cc1CCC2)C(C)C [Compound 1281] | < 1 | –
COC(=O)N[C@H](C(=O)N1CCC[C@H]1c1nc2c([nH]1)-c1ccc(C#Cc3ccc4nc([C@@H]5CCCN5C(=O)[C@H](NC(=O)OC5CCOCC5)c5ccccc5)[nH]c4c3)cc1CCC2)C(C)C [Compound 1282] | < 1 | –
C=CC[C@H](NC(=O)OC)C(=O)N1CCC[C@H]1c1nc2ccc(C#Cc3ccc4c(c3)CCCc3nc([C@@H]5CCCN5C(=O)[C@@H](NC(=O)OC)C(C)C)[nH]c3-4)cc2[nH]1 [Compound 1283] | < 1 | –
C#CC[C@H](NC(=O)OC)C(=O)N1CCC[C@H]1c1nc2ccc(C#Cc3ccc4c(c3)CCCc3nc([C@@H]5CCCN5C(=O)[C@@H](NC(=O)OC)C(C)C)[nH]c3-4)cc2[nH]1 [Compound 1284] | < 1 | –
COC(=O)N[C@H](C(=O)N1CCC[C@H]1c1nc2ccc(C#Cc3ccc4c(ccc5nc([C@@H]6CCCN6C(=O)[C@@H](NC(=O)OC)[C@@H](C)OC)[nH]c54)c3)cc2[nH]1)C(C)C [Compound 1286] | < 1 | –
COC(=O)N[C@H](C(=O)N1CCC[C@H]1c1nc2ccc(C#Cc3ccc4c(ccc5nc([C@@H]6CCCN6C(=O)[C@@H](NC(=O)OC)C6CCOCC6)[nH]c54)c3)cc2[nH]1)C(C)C [Compound 1287] | < 1 | –
COC[C@H](NC(=O)OC)C(=O)N1CCC[C@H]1c1nc2ccc3cc(C#Cc4ccc5nc([C@@H]6CCCN6C(=O)[C@@H](NC(=O)OC)C(C)C)[nH]c5c4)ccc3c2[nH]1 [Compound 1288] | < 1 | –
COC(=O)NC(C(=O)N1CCC[C@H]1c1nc2ccc(C#Cc3ccc4cc(-c5cnc([C@@H]6CCCN6C(=O)[C@H](NC(=O)OC)c6ccccc6)[nH]5)ccc4n3)cc2[nH]1)C(C)C (some centres unmarked) [Compound 1289] | < 1 | –
COC(=O)NC(C(=O)N1CCC[C@H]1c1nc2ccc(C#Cc3ccc4cc(-c5cnc([C@@H]6CCCN6C(=O)[C@@H](NC(=O)OC)C6CCOCC6)[nH]5)ccc4n3)cc2[nH]1)C(C)C (some centres unmarked) [Compound 1290] | < 1 | –
COC(=O)NC(C(=O)N1CCC[C@H]1c1nc2ccc(C#Cc3ccc4cc(-c5cnc([C@@H]6CCCN6C(=O)[C@H](NC(=O)OC6CCOCC6)c6ccccc6)[nH]5)ccc4n3)cc2[nH]1)C(C)C (some centres unmarked) [Compound 1291] | < 1 | –
COC(=O)N[C@H](C(=O)N1CCC[C@H]1c1ncc(-c2ccc3cc(C#Cc4[nH]c([C@@H]5CCCN5C(=O)[C@@H](NC(=O)OC)C(C)C)nc4C4CC4)ccc3c2)[nH]1)C(C)C [Compound 1300] | < 1 | –
COC(=O)N[C@H](C(=O)N1CCC[C@H]1c1nc2ccc(C#Cc3ccc(-c4ccc5nc([C@@H]6CCCN6C(=O)[C@@H](NC(=O)OC)C(C)C)[nH]c5c4)nc3)cc2[nH]1)C(C)C [compound 1083] | – | < 1
